Source: ChEMBL document CHEMBL1156829 (Proc Natl Acad Sci U S A, 2008)

Tests used:
[1] = NOVARTIS: Cytotoxicity against human hepatocellular carcinoma cell line (Huh7); assay type: toxicity, cell-based, Huh-7; details: Huh7 cells (hepatocellular carcinoma cell line)
Plasmodium falciparum [2] = assay: NOVARTIS: Inhibition of Plasmodium falciparum 3D7 (drug-susceptible) proliferation in erythrocyte-based infection assay; assay type: functional, organism-based; details: Plasmodium falciparum, 3D7
Plasmodium falciparum [3] = assay: NOVARTIS: Inhibition of Plasmodium falciparum W2 (drug-resistant) proliferation in erythrocyte-based infection assay; assay type: functional, organism-based; details: Plasmodium falciparum, W2; read-out: EC50

O=C(Nc1ccc2nc3n(c(=O)c2c1)CCCCC3)C(=O)N1CCN(c2cccc(Cl)c2)CC1
CC50 [1]: > 100000 nM
EC50 (Plasmodium falciparum [2]): 1810 nM
EC50 (Plasmodium falciparum [3]): 250 nM

NC(=O)c1ccc2[nH]c3c(c2c1)CCCC3
CC50 [1]: > 100000 nM
EC50 (Plasmodium falciparum [2]): > 12500 nM
EC50 (Plasmodium falciparum [3]): > 7160 nM

CC(C)CSc1nc2sc3c(c2c(=O)n1-c1ccccc1)CCN(Cc1ccccc1)C3
CC50 [1]: > 100000 nM
EC50 (Plasmodium falciparum [2]): 945 nM
EC50 (Plasmodium falciparum [3]): 392 nM

Cc1c(Cl)cccc1NC(=S)N(CCCN(C)c1ccccc1)Cc1cccn1Cc1ccc(Cl)cc1
CC50 [1]: > 100000 nM
EC50 (Plasmodium falciparum [2]): > 7300 nM
EC50 (Plasmodium falciparum [3]): > 10000 nM

CCCC(C(=O)NCCC(C)C)N(C(=O)c1snc(C(N)=O)c1N)c1ccc(C(C)C)cc1 (stereo unspecified)
CC50 [1]: > 100000 nM
EC50 (Plasmodium falciparum [2]): 5440 nM
EC50 (Plasmodium falciparum [3]): > 12500 nM

O=C(NCCCCNc1ccnc2cc(Cl)ccc12)c1cccc(Br)c1
CC50 [1]: > 10000 nM
EC50 (Plasmodium falciparum [2]): 422 nM
EC50 (Plasmodium falciparum [3]): 453 nM

Brc1cccc(CNC2CCN(CCc3ccccc3)CC2)c1
CC50 [1]: 22900 nM
EC50 (Plasmodium falciparum [2]): 310 nM
EC50 (Plasmodium falciparum [3]): 515 nM

CC(C)(C)CC(C)(C)Nc1c(-c2ccccc2OC(=O)c2cccc(Cl)c2)nc2ccccn12
CC50 [1]: > 10000 nM
EC50 (Plasmodium falciparum [2]): 629 nM
EC50 (Plasmodium falciparum [3]): 41.6 nM

CO/C(=C\C(N)=O)C(C)C(/C=C/c1csc(-c2csc(C(C)/C=C/C=C/C(C)C)n2)n1)OC (stereo unspecified)
CC50 [1]: > 10000 nM
EC50 (Plasmodium falciparum [2]): 1240 nM
EC50 (Plasmodium falciparum [3]): 84.6 nM

CCC(=O)c1c(C)n(-c2ccc(Br)cc2)c2ccc(O)cc12
CC50 [1]: > 10000 nM
EC50 (Plasmodium falciparum [2]): > 769 nM
EC50 (Plasmodium falciparum [3]): 1140 nM

CCCCNC(=O)CSCc1cnn(-c2ccccc2)c1-n1cccc1
CC50 [1]: > 100000 nM
EC50 (Plasmodium falciparum [2]): 253 nM
EC50 (Plasmodium falciparum [3]): 257 nM

N#Cc1ccccc1CN1CCC(Oc2cccc3onc(N)c23)CC1
CC50 [1]: 891 nM
EC50 (Plasmodium falciparum [2]): > 1660 nM
EC50 (Plasmodium falciparum [3]): 189 nM

O=C(c1cccs1)N1CCN(c2ccccn2)CC1
CC50 [1]: > 10000 nM
EC50 (Plasmodium falciparum [2]): 2020 nM
EC50 (Plasmodium falciparum [3]): > 1560 nM

Cn1c2ccncc2c2cc([N+](=O)[O-])ccc21
CC50 [1]: 31400 nM
EC50 (Plasmodium falciparum [2]): 833 nM
EC50 (Plasmodium falciparum [3]): 938 nM

CCN1CCN(C(=O)Nc2ccc(Cc3ccc(NC(=O)N4CCN(CC)CC4)cc3)cc2)CC1
CC50 [1]: 62000 nM
EC50 (Plasmodium falciparum [2]): 2390 nM
EC50 (Plasmodium falciparum [3]): 1720 nM

COc1ccc(Nc2nc(NN=Cc3cccc([N+](=O)[O-])c3)nc(Nc3ccc([N+](=O)[O-])cc3)n2)cc1
CC50 [1]: > 100000 nM
EC50 (Plasmodium falciparum [2]): 406 nM
EC50 (Plasmodium falciparum [3]): 404 nM

Cc1ccccc1-c1cccc(CN2CCCCC2CCn2cc(C(=O)NC3CC3)nn2)c1 (stereo unspecified)
CC50 [1]: > 100000 nM
EC50 (Plasmodium falciparum [2]): 1470 nM
EC50 (Plasmodium falciparum [3]): 685 nM

CCOc1ccccc1-n1c(SCC(=O)c2ccc(Cl)cc2)nc2[nH]ncc2c1=O
CC50 [1]: 73000 nM
EC50 (Plasmodium falciparum [2]): > 12500 nM
EC50 (Plasmodium falciparum [3]): 4020 nM

CC(C)=CCC/C(C)=C/CCC(C)NCCN1CCNCC1 (stereo unspecified)
CC50 [1]: > 10000 nM
EC50 (Plasmodium falciparum [2]): > 1100 nM
EC50 (Plasmodium falciparum [3]): 911 nM

COc1cc(C=NNC(=O)c2ccc(C(=O)NN=Cc3ccc(O)c(OC)c3)cc2)ccc1O
CC50 [1]: > 100000 nM
EC50 (Plasmodium falciparum [2]): 652 nM
EC50 (Plasmodium falciparum [3]): 1030 nM

CC[C@@H](C(=O)[C@@H](C)[C@@H](O)[C@H](C)CCc1ccc(C)c(O)c1C(=O)O)[C@H]1O[C@](CC)([C@H]2CC[C@](O)(CC)[C@@H](C)O2)C[C@@H]1C
CC50 [1]: > 10000 nM
EC50 (Plasmodium falciparum [2]): 726 nM
EC50 (Plasmodium falciparum [3]): 468 nM

COc1ccc(-c2c[n+](CC(=O)c3ccc(Cl)cc3)c3n2CCC3)cc1
CC50 [1]: > 100000 nM
EC50 (Plasmodium falciparum [2]): 641 nM
EC50 (Plasmodium falciparum [3]): 150 nM

O=C(COc1ccc(Cl)cc1)NCCCCNc1ccnc2cc(Cl)ccc12
CC50 [1]: > 9740 nM
EC50 (Plasmodium falciparum [2]): 240 nM
EC50 (Plasmodium falciparum [3]): 303 nM

O=c1c2c3c(sc2ncn1CCCc1ccccc1)CC(N1CCC(N2CCCCC2)CC1)CC3 (stereo unspecified)
CC50 [1]: 14800 nM
EC50 (Plasmodium falciparum [2]): 386 nM
EC50 (Plasmodium falciparum [3]): 2020 nM

CCNC(=O)NCCSc1nc(-c2ccc(OC)cc2)c(-c2ccc(OC)cc2)n1CC
CC50 [1]: > 10000 nM
EC50 (Plasmodium falciparum [2]): > 1660 nM
EC50 (Plasmodium falciparum [3]): > 812 nM

O=C(O)CC12CC3CC(C1)CC(c1ccc([N+](=O)[O-])cc1)(C3)C2
CC50 [1]: > 10000 nM
EC50 (Plasmodium falciparum [2]): > 883 nM
EC50 (Plasmodium falciparum [3]): > 1250 nM

CCN(CC)C(=O)c1cn(C2CCN(C(=O)CCc3cccc(OC)c3)CC2)nn1
CC50 [1]: > 10000 nM
EC50 (Plasmodium falciparum [2]): > 1250 nM
EC50 (Plasmodium falciparum [3]): 26.7 nM
